Assays:
D(2) dopamine receptor [1] = molecular target: T1, D(2) dopamine receptor (Homo sapiens, UniProt P14416); assay: Displacement of [3H]N-methylspiperone from human D2 receptor expressed in HEKT cell membranes after 90 mins by microbeta scintillation counting method
D(2) dopamine receptor [2] = molecular target: T1, D(2) dopamine receptor; assay: Displacement of [3H]N-methylspiperone from human D2 receptor expressed in HEKT cell membranes at 10 uM after 90 mins by microbeta scintillation counting method relative to control; conditions: HEKT cell membranes expressing human D2 receptor, probe [3H]N-methylspiperone
D(3) dopamine receptor [3] = molecular target: T2, D(3) dopamine receptor (Homo sapiens, UniProt P35462); assay: Displacement of [3H]N-methylspiperone from human D3 receptor expressed in HEKT cell membranes after 90 mins by microbeta scintillation counting method
D(3) dopamine receptor [4] = molecular target: T2, D(3) dopamine receptor; assay: Displacement of [3H]N-methylspiperone from human D3 receptor expressed in HEKT cell membranes at 10 uM after 90 mins by microbeta scintillation counting method relative to control
D(1A) dopamine receptor [5] = molecular target: T3, D(1A) dopamine receptor (Homo sapiens, UniProt P21728); assay: Displacement of [3H]SCH23390 from human D1 receptor expressed in HEKT cell membranes at 10 uM after 90 mins by microbeta scintillation counting method relative to control
D(1A) dopamine receptor [6] = molecular target: T3, D(1A) dopamine receptor; assay: Displacement of [3H]SCH23390 from human D1 receptor expressed in HEKT cell membranes after 90 mins by microbeta scintillation counting method
[7] = Selectivity index, ratio of Ki for human D2 receptor expressed in HEKT cell membranes to Ki for human D1 receptor expressed in HEKT cell membranes
[8] = Antagonist activity at rhesus monkey D1 receptor expressed in HEK293 cells assessed as inhibition of dopamine-induced [35S]GTPgammaS binding; format: cell-based, Macaca mulatta
D(3) dopamine receptor [9] = molecular target: T2, D(3) dopamine receptor; assay: Antagonist activity at human D3 receptor expressed in CHO cells assessed as inhibition of dopamine-induced [35S]GTPgammaS binding; format: functional, cell-based

T2 sequence (P35462 whole entry): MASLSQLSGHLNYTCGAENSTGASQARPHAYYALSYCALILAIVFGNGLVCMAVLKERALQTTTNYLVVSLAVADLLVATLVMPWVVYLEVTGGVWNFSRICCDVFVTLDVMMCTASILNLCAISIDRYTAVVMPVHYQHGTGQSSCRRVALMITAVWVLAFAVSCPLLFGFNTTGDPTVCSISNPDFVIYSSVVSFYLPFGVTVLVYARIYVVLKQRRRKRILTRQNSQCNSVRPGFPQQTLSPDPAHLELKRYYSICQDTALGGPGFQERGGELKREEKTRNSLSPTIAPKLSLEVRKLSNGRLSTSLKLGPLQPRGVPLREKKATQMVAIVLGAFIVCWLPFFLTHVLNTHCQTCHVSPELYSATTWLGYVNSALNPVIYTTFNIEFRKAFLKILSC
T3 sequence (P21728 whole entry): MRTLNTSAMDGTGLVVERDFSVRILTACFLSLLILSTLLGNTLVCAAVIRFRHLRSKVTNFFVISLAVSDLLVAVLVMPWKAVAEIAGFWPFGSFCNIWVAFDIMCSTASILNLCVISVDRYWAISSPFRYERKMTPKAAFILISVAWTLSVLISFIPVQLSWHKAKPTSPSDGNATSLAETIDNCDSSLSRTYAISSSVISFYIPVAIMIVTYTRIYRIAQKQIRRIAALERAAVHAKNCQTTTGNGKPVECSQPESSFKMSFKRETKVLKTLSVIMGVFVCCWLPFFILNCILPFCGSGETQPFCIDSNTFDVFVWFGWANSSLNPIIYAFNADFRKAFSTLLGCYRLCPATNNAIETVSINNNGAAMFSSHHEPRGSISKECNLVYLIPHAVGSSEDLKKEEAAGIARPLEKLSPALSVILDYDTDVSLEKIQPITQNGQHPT
T1 sequence (P14416 whole entry): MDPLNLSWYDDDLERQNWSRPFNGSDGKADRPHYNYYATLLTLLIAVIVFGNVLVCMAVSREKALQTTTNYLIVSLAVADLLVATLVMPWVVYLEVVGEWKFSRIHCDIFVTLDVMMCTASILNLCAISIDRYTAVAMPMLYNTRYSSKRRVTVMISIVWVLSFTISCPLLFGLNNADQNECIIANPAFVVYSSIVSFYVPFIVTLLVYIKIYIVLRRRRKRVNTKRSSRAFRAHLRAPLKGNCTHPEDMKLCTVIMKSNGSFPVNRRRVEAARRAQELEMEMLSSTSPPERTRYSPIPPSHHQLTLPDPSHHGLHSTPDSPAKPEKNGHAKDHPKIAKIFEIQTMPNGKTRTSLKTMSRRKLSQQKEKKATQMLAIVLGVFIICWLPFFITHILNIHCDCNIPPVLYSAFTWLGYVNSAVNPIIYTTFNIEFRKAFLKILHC

Row | Structure (SMILES) | Ki (D(2) dopamine receptor [1]) | inhibition at 1.5 h, 10 µM (D(2) dopamine receptor [2]) | Ki (D(3) dopamine receptor [3]) | inhibition (D(3) dopamine receptor [4]) | inhibition (D(1A) dopamine receptor [5]) | Ki (D(1A) dopamine receptor [6]) | IC50 [8] | Ke (D(3) dopamine receptor [9]) | Ratio Ki [7]
1 | CCCCCOc1c(O)ccc2c1CN1CCc3cc(OC)c(O)cc3[C@@H]1C2 | 23 nM | > 50% | 3210 nM | > 50% |  |  |  |  | 
2 | CCCCOc1c(O)ccc2c1CN1CCc3cc(OC)c(O)cc3[C@@H]1C2 |  | < 50% |  | > 50% |  |  |  |  | 
3 | COc1cc2c(cc1O)[C@@H]1Cc3ccc(O)c(OC)c3CN1CC2 [STEPHOLIDINE] |  | > 50% |  | > 50% | > 50% |  |  |  | 
4 | CCOc1c(O)cc(Br)c2c1CN1CCc3cc(OC)c(O)cc3[C@@H]1C2 |  | < 50% | 373 nM | > 50% | > 50% | 1.3 nM |  |  | >10
5 | COCCOc1c(O)ccc2c1CN1CCc3cc(OC)c(O)cc3[C@@H]1C2 | 18 nM | > 50% |  | > 50% | > 50% | 7.7 nM |  |  | 
6 | CCCCOc1c(O)cc(Br)c2c1CN1CCc3cc(OC)c(O)cc3[C@@H]1C2 | 107 nM | > 50% |  | > 50% | > 50% | 2.3 nM |  |  | 
7 | CCCOc1c(O)cc(Br)c2c1CN1CCc3cc(OC)c(O)cc3[C@@H]1C2 | 70 nM | > 50% |  | > 50% | > 50% | 2.2 nM |  |  | 

More lines, main results first:

Row | Ki (D(2) dopamine receptor [1]) | inhibition at 1.5 h, 10 µM (D(2) dopamine receptor [2]) | Ki (D(3) dopamine receptor [3]) | inhibition (D(3) dopamine receptor [4]) | inhibition (D(1A) dopamine receptor [5]) | Ki (D(1A) dopamine receptor [6]) | IC50 [8] | Ke (D(3) dopamine receptor [9]) | Structure (SMILES) | Ratio Ki [7]
8 |  | < 50% | 726 nM | > 50% | > 50% | 4.2 nM |  |  | COCCOc1c(O)cc(Br)c2c1CN1CCc3cc(OC)c(O)cc3[C@@H]1C2 | 
9 | 398 nM | > 50% |  | > 50% | > 50% | 32 nM |  |  | CCCCCOc1c(O)cc(Br)c2c1CN1CCc3cc(OC)c(O)cc3[C@@H]1C2 | 
10 | 331 nM | > 50% | 2070 nM | > 50% | > 50% | 9.7 nM |  |  | CCC(C)Oc1c(O)cc(Br)c2c1CN1CCc3cc(OC)c(O)cc3[C@@H]1C2 (some centres undefined) | 
11 | 41 nM | > 50% | 175 nM | > 50% | > 50% | 12 nM |  |  | CCCOc1c(O)ccc2c1CN1CCc3cc(OC)c(O)cc3[C@@H]1C2 | 
12 |  | < 50% | 106 nM | > 50% | > 50% | 5.3 nM | 416 nM | 3.15 nM | CCOc1c(O)ccc2c1CN1CCc3cc(OC)c(O)cc3[C@@H]1C2 | 
13 | 731 nM | > 50% | 3170 nM | > 50% | > 50% | 68 nM |  |  | CCCCCCOc1c(O)cc(Br)c2c1CN1CCc3cc(OC)c(O)cc3[C@@H]1C2 | >10
14 | 104 nM | > 50% |  |  |  | 65 nM |  |  | CCC(C)Oc1c(O)ccc2c1CN1CCc3cc(OC)c(O)cc3[C@@H]1C2 (some centres undefined) | 
15 |  | < 50% | 195 nM | > 50% | > 50% | 77 nM |  |  | CCCCCCOc1c(O)ccc2c1CN1CCc3cc(OC)c(O)cc3[C@@H]1C2 | 

From ChEMBL document CHEMBL3877260, “Synthesis and evaluation of C9 alkoxy analogues of (-)-stepholidine as dopamine receptor ligands” (Eur J Med Chem, 2017)
